US11993604B2, “Substituted pyrazolo[4,3-H]quinazolines as protein kinase inhibitors” (SHENGKE PHARMACEUTICALS (JIANGSU) LTD., priority 2017, dated 2024)

Assays:
[1] = molecular target: T1, recombinant CDK4/Cyclin D1 (Homo sapiens, UniProt P11802); assay: Biochemical kinase inhibition test, CDK4/Cyclin D1 (32P-ATP, retinoblastoma protein substrate); conditions: three-fold serial dilution from 10 μM; 10 μM ATP; read-out: CDK4/D1 (nM), enzyme inhibitory activity IC50
T1 construct: purchased Life Technologies PV4204
T1 sequence (P11802 whole entry): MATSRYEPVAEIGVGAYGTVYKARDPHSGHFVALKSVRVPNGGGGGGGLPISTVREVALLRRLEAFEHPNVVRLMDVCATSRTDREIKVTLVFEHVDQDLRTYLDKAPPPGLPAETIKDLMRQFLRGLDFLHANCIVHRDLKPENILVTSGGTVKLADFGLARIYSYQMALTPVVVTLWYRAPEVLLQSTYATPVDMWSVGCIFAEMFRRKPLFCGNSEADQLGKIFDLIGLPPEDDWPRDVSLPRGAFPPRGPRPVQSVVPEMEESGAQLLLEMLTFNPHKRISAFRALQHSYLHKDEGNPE
T1 sequence (P24385 whole entry partner): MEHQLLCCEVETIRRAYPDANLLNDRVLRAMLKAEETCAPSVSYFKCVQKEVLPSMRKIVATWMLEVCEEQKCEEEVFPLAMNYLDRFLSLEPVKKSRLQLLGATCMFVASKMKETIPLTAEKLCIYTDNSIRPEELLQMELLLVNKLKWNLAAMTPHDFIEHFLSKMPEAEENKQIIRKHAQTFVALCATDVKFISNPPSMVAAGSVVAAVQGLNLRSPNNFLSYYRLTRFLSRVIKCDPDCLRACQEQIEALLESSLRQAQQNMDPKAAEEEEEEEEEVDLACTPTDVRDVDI

CDK6/cyclin D1 = CDK6/cyclin D1 (Homo sapiens, UniProt Q00534); assay: Biochemical kinase inhibition test, CDK6/cyclin D1 (similar method); conditions: for selectivity for CDK6/cyclin D1 relative to CDK4/cyclin D1 (enzyme inhibitory activity): CDK6/cyclin D1 versus CDK4/cyclin D1; for IC50: three-fold serial dilution from 10 μM, 10 μM ATP, read-out: CDK6/D1 (nM), enzyme inhibitory activity IC50
CDK6/cyclin D1, sequence (Q00534 whole entry, species assumed): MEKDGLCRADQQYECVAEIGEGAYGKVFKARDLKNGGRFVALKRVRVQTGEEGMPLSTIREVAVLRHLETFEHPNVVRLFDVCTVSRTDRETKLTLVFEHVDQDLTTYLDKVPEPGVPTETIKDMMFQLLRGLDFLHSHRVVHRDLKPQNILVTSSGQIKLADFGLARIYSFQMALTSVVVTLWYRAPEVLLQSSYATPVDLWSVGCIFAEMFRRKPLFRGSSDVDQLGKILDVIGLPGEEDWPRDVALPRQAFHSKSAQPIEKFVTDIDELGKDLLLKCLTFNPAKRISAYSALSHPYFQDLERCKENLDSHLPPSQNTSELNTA
CDK6/cyclin D1, sequence (P24385 whole entry partner, species assumed): as the sequence (P24385 whole entry partner) above
Procedure: Potency determination of biochemical kinase inhibition test. Kinase activity test and IC50 determination. Firstly, 10 ng of recombinant CDK4/Cyclin D1 (Life Technologies PV4204) was diluted in kinase buffer (20 mM Tris pH 7.5, 10 mM MgCl2, 0.01% NP-40, 2 mM DTT), and was incubated with inhibitors at the indicated concentration at room temperature for 30 minutes. The kinase reaction was initiated by adding […] (1.5 μM) of recombinant retinoblastoma protein, 5 μM ATP and 10μ Ci γ-32P-ATP. The reaction was incubated at 30° C. for 20 minutes, and was terminated by adding 2× Laemmli sample buffer, heated at 95° C. for three minutes, and the resulting solution was dissolved with 12% acrylamide SDS-PAGE and autoradiographed. A densitometer (Bio-Rad) was used to quantify the corresponding phosphorylated substrate protein bands. The resulting density values were plotted as a function of the log drug concentration using Prism 4 Graphpad software. IC50 values were determined by plotting a non-linear regression curve with a variable slope.
The inhibitory activity of the compounds disclosed herein against CDK6/cyclin D1 was tested by a similar method.
The compounds were tested in a three-fold serial dilution from the starting concentration of 10 μM, over 10-fold of IC50. The control compound, staurosporine, was tested in a four-fold serial dilution from the starting concentration of 20 μM, over 10-fold of IC50. These reactions took place in the presence of 10 μM ATP.

Row | Compound | IC50 [1] | selectivity for CDK6/cyclin D1 relative to CDK4/cyclin D1 (enzyme inhibitory activity) (CDK6/cyclin D1) | IC50 (CDK6/cyclin D1)
1 | CCN1CCN(c2ccc(Nc3ncc4ccc5cnn(C6CC6)c5c4n3)nc2)CC1 [Compound I-56] | 10 to 20 nM | about 3 times | 5 to 10 nM
2 | CCN1CCN(c2cnc(Nc3ncc4ccc5cnn(C6CC6)c5c4n3)cc2C)CC1 [Compound I-57] | 10 to 20 nM | – | 10 to 20 nM
3 | c1cc(Nc2ncc3ccc4cnn(C5CC5)c4c3n2)ncc1N1CCOCC1 [Compound I-58] | 10 to 20 nM | about 3 times | 5 to 10 nM
4 | Cc1cc(Nc2ncc3ccc4cnn(C5CC5)c4c3n2)ncc1N1CCOCC1 [Compound I-59] | 10 to 20 nM | – | 10 to 20 nM
5 | CC1CN(c2ccc(Nc3ncc4ccc5cnn(C6CC6)c5c4n3)nc2)CCO1 (stereo not shown) [Compound I-60] | 10 to 20 nM | – | 10 to 20 nM
6 | CC(C)n1ncc2c(Br)cc3cnc(Nc4ccc(N5CCNCC5)cn4)nc3c21 [Compound I-61] | 10 to 20 nM | – | 10 to 20 nM
7 | CC(C)n1ncc2c(Br)cc3cnc(Nc4cc(F)c(N5CCNCC5)cn4)nc3c21.Cl [Compound I-62] | 20 to 50 nM | about 2 times | 10 to 20 nM
8 | CC(C)n1ncc2c(Br)cc3cnc(Nc4ccc(N5CCN(C)CC5)cn4)nc3c21 [Compound I-63] | 10 to 20 nM | – | 10 to 20 nM
9 | CCN1CCN(c2ccc(Nc3ncc4cc(Br)c5cnn(C(C)C)c5c4n3)nc2)CC1 [Compound I-64] | 10 to 20 nM | – | 10 to 20 nM
10 | CC(C)n1ncc2c(Br)cc3cnc(Nc4ccc(N5CCOCC5)cn4)nc3c21 [Compound I-65] | 10 to 20 nM | – | 10 to 20 nM
11 | Cc1cc2cnc(Nc3ccc(N4CCNCC4)cn3)nc2c2c1cnn2C(C)C.Cl [Compound I-66] | 10 to 20 nM | about 3 times | 1 to 5 nM
12 | Cc1cc2cnc(Nc3cc(F)c(N4CCNCC4)cn3)nc2c2c1cnn2C(C)C.Cl [Compound I-67] | 20 to 50 nM | about 2 times | 10 to 20 nM
13 | Cc1cc2cnc(Nc3ccc(N4CCN(C)CC4)cn3)nc2c2c1cnn2C(C)C [Compound I-68] | 10 to 20 nM | – | 1 to 5 nM
14 | CCN1CCN(c2ccc(Nc3ncc4cc(C)c5cnn(C(C)C)c5c4n3)nc2)CC1 [Compound I-69] | 10 to 20 nM | – | 1 to 5 nM
15 | Cc1cc2cnc(Nc3ccc(N4CCOCC4)cn3)nc2c2c1cnn2C(C)C [Compound I-70] | 10 to 20 nM | – | 10 to 20 nM
16 | CC(C)n1ncc2c(C#N)cc3cnc(Nc4ccc(N5CCNCC5)cn4)nc3c21.Cl [Compound I-71] | 10 to 20 nM | about 3 times | 1 to 5 nM
17 | CC(C)n1ncc2c(C#N)cc3cnc(Nc4cc(F)c(N5CCNCC5)cn4)nc3c21.Cl [Compound I-72] | 20 to 50 nM | about 2 times | 10 to 20 nM

Second part, the compound after the results:

Row | IC50 [1] | selectivity for CDK6/cyclin D1 relative to CDK4/cyclin D1 (enzyme inhibitory activity) (CDK6/cyclin D1) | IC50 (CDK6/cyclin D1) | Compound
18 | 10 to 20 nM | about 3 times | 1 to 5 nM | CCN1CCN(c2ccc(Nc3ncc4cc(C#N)c5cnn(C(C)C)c5c4n3)nc2)CC1 [Compound I-73]
19 | 10 to 20 nM | about 3 times | 1 to 5 nM | CC(C)n1ncc2c(C#N)cc3cnc(Nc4ccc(N5CCOCC5)cn4)nc3c21 [Compound I-74]
20 | 1 to 5 nM | – | < 1 nM | CC(=O)c1cc2cnc(Nc3ccc(N4CCNCC4)cn3)nc2c2c1cnn2C(C)C [Compound I-75]
21 | 10 to 20 nM | about 2 times | 5 to 10 nM | CC(=O)c1cc2cnc(Nc3cc(F)c(N4CCNCC4)cn3)nc2c2c1cnn2C(C)C.Cl [Compound I-76]
22 | 5 to 10 nM | – | < 1 nM | CC(=O)c1cc2cnc(Nc3ccc(N4CCN(C)CC4)cn3)nc2c2c1cnn2C(C)C [Compound I-77]
23 | 1 to 5 nM | – | < 1 nM | CCN1CCN(c2ccc(Nc3ncc4cc(C(C)=O)c5cnn(C(C)C)c5c4n3)nc2)CC1 [Compound I-78]
24 | 5 to 10 nM | – | < 1 nM | CC(=O)c1cc2cnc(Nc3ccc(N4CCOCC4)cn3)nc2c2c1cnn2C(C)C [Compound I-79]
25 | 5 to 10 nM | about 3 times | 1 to 5 nM | COc1cc(OC)cc(-c2cc3cnc(Nc4ccc(N5CCNCC5)cn4)nc3c3c2cnn3C(C)C)c1.Cl [Compound I-80]
26 | 5 to 10 nM | about 3 times | 1 to 5 nM | CCN1CCN(c2ccc(Nc3ncc4cc(-c5cc(OC)cc(OC)c5)c5cnn(C(C)C)c5c4n3)nc2)CC1 [Compound I-81]
27 | 5 to 10 nM | about 3 times | 1 to 5 nM | COc1cc(OC)cc(-c2cc3cnc(Nc4ccc(N5CCOCC5)cn4)nc3c3c2cnn3C(C)C)c1 [Compound I-82]
